According to patent EP4745130A1, “CRYSTAL FORMS OF TUBULIN-SRC DUAL-TARGETING INHIBITOR, PREPARATION METHOD THEREFOR AND USE THEREOF” (Hubei Bio-Pharmaceutical Industrial Technological Institute …, priority 2023, dated 2025):
Converted amounts (≈) assume the structure as drawn. Counter-ions that a name gives are not always drawn. Like-named read-outs stand apart in the source and are kept apart here.

Columns and labels:
[1] = Pharmacokinetic test in mice; type: in vivo; settings: mouse, plasma, male ICR mice
Experimental: For the pharmacokinetic test in mice, 3 male ICR mice, 20 to 25 g, were used, fasted overnight, and administered by tail vein injection (1 mg/kg or 5 mg/kg). Blood was collected before the administration, and at 15 min, 30 min, 1 hour, 2 hours, 4 hours, 8 hours, and 24 hours after the administration. Another 3 mice were taken and administered by oral gavage (5 mg/kg), and blood was collected before the administration, and at 15 min, 30 min, 1 hour, 2 hours, 4 hours, 8 hours, and 24 hours after the administration. Blood samples were centrifuged at 6800 g at 2 to 8°C for 6 min, and plasma was collected and stored at -80°C. The plasma at each time point was taken and added with an acetonitrile solution containing internal standard in 3 to 5 times the amount. The mixture was vortexed and mixed for 1 min, and centrifuged at 13,000 rpm at 4°C for 10 min. The supernatant was collected, added with water in 3 times the amount, and mixed. An appropriate amount of the mixture was taken for LC-MS/MS analysis. The main pharmacokinetic parameters were analyzed using WinNonlin 7.0 software with non-compartmental model. Table 43: Results 1 of pharmacokinetic tests in mice

[2] = system: Human cutaneous squamous cell carcinoma cell A-431; assay: Cell proliferation inhibition test, A-431; type: cell-based; settings: A-431, 96 h, 4 days incubation
Experimental: (§1) Human cutaneous squamous cell carcinoma cell A-431 (ATCC, CRL-1555) and actinic keratosis patient-derived cell HT 297.T (ATCC, CRL-7782) proliferation assays were used to detect the inhibitory effect of small molecular compounds on cell proliferation.
A-431 cells and HT 297.T cells were cultured in DMEM medium containing 10% fetal bovine serum and grown at 37°C in a 5% CO2 incubator. Cells on logarithmic phase were seeded into a 96-well cell culture plate at 1000 cells/well, 100 µL per well, and then cultured overnight at 37°C in a 5% CO2 incubator. The next day, 100 µL of gradient-diluted 2× test compound solution was added to each well, with DMSO serving as a positive control, and 10 µM staurosporine (Aladdin, S102392) was set as a negative control group. After the addition of the compounds, the culture plate was incubated for another 4 days at 37°C in a 5% CO2 incubator. After incubation, the Steady-Glo® luciferase assay system (Promega, G9243) was used according to the supplier's instructions to measure the fluorescence signal value on the Envision 2104 Multilabel Reader. The inhibition rate was calculated by the following formula, then the curve was plotted with the Log value of the inhibitor concentration as the X-axis and the inhibition rate as the Y-axis, and the IC50 was calculated using Graphpad 8.0. [formula] […]

tubulin = target: T1, tubulin (Sus scrofa, UniProt P02550+P02554); assay: Inhibition test of tubulin monomer polymerization (Tubulin polymerization assay kit, fluorescence); type: biochemical; settings: 5 µL of 12.5 µM compound solution; fluorescence ex 360 nm / em 420 nm, 37°C; larger value = lower inhibitory efficiency
T1 construct: purchased cytoskeleton BK011P
Experimental: Tubulin polymerization assay kit (cytoskeleton, Cat. # BK011P) was used to conduct the compound inhibition test of tubulin monomer polymerization.
Before the test, the 96-well plate (Corning Costar, Cat. # 3686) supplied with the kit was first placed in a microplate reader (MD, SpectraMax M5) and heated to 37°C, maintained for 10 minutes. The 96-well plate was then removed, and 5 µL of 12.5 µM compound solution or blank solution was added thereto. The 96-well plate was then placed back into the microplate reader and incubated at 37°C for 1 minute to heat the compound solution to 37°C. The 96-well plate was removed and 50 µL of reaction mixture prepared according to the supplier's instructions was quickly added to each well, completing the sample addition within 1 minute to avoid the formation of bubbles. The 96-well plate was then immediately placed back into the microplate reader, shaken for 5 seconds, and using the Kinetic mode, continuous detection was carried out at 37°C for 30 to 60 minutes under the conditions of excitation light at 360 nm and emission light at 420 nm, with detection every 30 seconds. Taking the detection time as the X-axis and the fluorescence signal value as the Y-axis, the tubulin monomer polymerization curve was obtained. As shown in FIG. 66 and Table 40, the larger the Vmax value and the higher the maximum fluorescence signal value of the polymerization curve, the lower the inhibitory efficiency of the compound.

[3] = Thermodynamic solubility test; type: physicochemical; settings: thermodynamic from solid, 4 mg/mL, overnight at room temperature
Experimental: Phosphate buffer saline (PBS) with a pH of 7.4, FeSSIF solution with a pH of 6.5, and FaSSGF solution with a pH of 1.6 were prepared. The compound was accurately weighed and added to prepared phosphate buffer saline with a pH of 7.4, FeSSIF solution with a pH of 6.5, and FaSSGF solution with a pH of 1.6 to prepare into a solution with a concentration of 4 mg/mL. The solution was shaken at a speed of 1000 rpm for 1 hour, and then incubated overnight at room temperature. The incubated solution was centrifuged at 12,000 rpm for 10 minutes to remove undissolved particles, and the supernatant was transferred to a new centrifuge tube. After the supernatant was appropriately diluted, an acetonitrile solution containing internal standard was added, and a standard curve prepared with the same matrix was used for quantification. Table 42: Thermodynamic solubility test results

[4] = system: actinic keratosis patient-derived cell HT 297.T; assay: Cell proliferation inhibition test, HT 297.T; type: cell-based, Human; settings: Homo sapiens, 96 h; 4 days incubation
Experimental: as §1
A-431 cells and HT 297.T cells were cultured in DMEM medium containing 10% fetal bovine serum and grown at 37°C in a 5% CO2 incubator. Cells on logarithmic phase were seeded into a 96-well cell culture plate at 1000 cells/well, 100 µL per well, and then cultured overnight at 37°C in a 5% CO2 incubator. The next day, 100 µL of gradient-diluted 2× test compound solution was added to each well, with DMSO serving as a positive control, and 10 µM staurosporine (Aladdin, S102392) was set as a negative control group. After the addition of the compounds, the culture plate was incubated for another 4 days at 37°C in a 5% CO2 incubator. After incubation, the Steady-Glo® luciferase assay system (Promega, G9243) was used according to the supplier's instructions to measure the fluorescence signal value on the Envision 2104 Multilabel Reader. The inhibition rate was calculated by the following formula, then the curve was plotted with the Log value of the inhibitor concentration as the X-axis and the inhibition rate as the Y-axis, and the IC50 was calculated using Graphpad 8.0. [formula] Table 41: Inhibition results of test compounds on proliferation activity of A-431 and HT 297.T cells

[5] = Human liver microsome stability test; type: in vitro ADME; settings: human liver microsomes, NADPH, 37°C, 0-45 min
Experimental: The human liver microsome stability test was performed by incubating the compound and human liver microsomes in vitro. First, the compound to be tested was prepared into a 10 mM stock solution in DMSO solvent, and then the compound was diluted to 0.5 mM with acetonitrile. Human liver microsomes (Corning) were diluted with PBS into a microsome/buffer solution, and the solution was used to dilute 0.5 mM compound into a working solution, in which the concentration of the compound was 1.5 µM, and the concentration of human liver microsomes was 0.75 mg/mL. A deep-well plate was taken, 30 µL of the working solution was added per well, and then 15 µL of pre-heated 6 mM NADPH solution was added thereto to initiate a reaction, and the reaction was incubated at 37°C. At 0, 5, 15, 30 and 45 min of the incubation, 135 µL of acetonitrile was added to the corresponding wells to terminate the reaction. After the reaction was terminated with acetonitrile at the last time point of 45 min, the deep-well plate was vortexed and shaken for 10 min (600 rpm), and then centrifuged for 15 min. After centrifugation, the supernatant was collected, and added with purified water in a ratio of 1:1 to perform LC-MS/MS detection. A ratio of a peak area of compound to a peak area of internal standard at each time point was obtained, and the peak area ratios of the compound at 5, 15, 30 and 45 min were compared with the peak area ratio at 0 min to calculate the remaining percentage of the compound at each time point. T1/2 was calculated by using GraphPad 5 software. Table 45: Results of human liver microsome stability test

[6] = Dynamic solubility experiment at 37°C (water, SGF, FaSSIF, FeSSIF); settings: for S: solubility: solid feed 10 mg/mL; for pH: pH value of the filtrate
Experimental: (§2) Rotating mixing was carried out at 37°C at a solid feed concentration of 10 mg/mL (calculated as the compound of Formula I). […] After sampling at each time point, the samples were centrifuged (10000 rpm) and filtered (0.45 µm PTFE filter head), and the HPLC concentration and pH value of the filtrate were measured.
(§3) 100 mg of NaCl and 50 mg of Triton X-100 were weighed into a 50 mL volumetric flask, and purified water was added to complete dissolution. 816 µL of 1 M hydrochloric acid was added thereto, and the pH was adjusted to 1.8 with 1 M hydrochloric acid or 1 M NaOH solution. Purified water was added to make up to volume.
(§4) 340 mg of anhydrous NaH2PO4 and 620 mg of NaCl were weighed into a 100 mL volumetric flask. Purified water was added to complete dissolution, followed by addition of 55.44 µL of 50% NaOH solution, and the pH was adjusted to 6.5 using 1M HCl or 1M NaOH solution. Purified water was added to make up to volume. 110 mg of SIF powder was then weighed into a 50 mL volumetric flask, added with the above solution to complete dissolution and make up to volume.
(§5) 0.82 mL of glacial acetic acid and 1.18 g of NaCl were added to a 100 mL volumetric flask. Purified water was added to complete dissolution, followed by addition of 528 µL of 50% NaOH solution, and the pH was adjusted to 5.0 using 1M HCl or 1M NaOH solution. Purified water was added to make up to volume. 560 mg of SIF powder was then weighed into a 50 mL volumetric flask, added with the above solution to complete dissolution and make up to volume.

[7] = Variable humidity XRPD (VH-XRPD); type: physicochemical
Source text: The XRPD pattern was collected on an X-ray powder diffraction analyzer produced by PANalytacal, and the scanning parameters are shown in Table 16. Table 16 XRPD test parameters
Under low-humidity conditions (e.g., 30% RH), the sample reverts to the anhydrous crystal form A of the fumarate salt.

[8] = Solid-state stability (XRPD and HPLC after open storage); type: physicochemical; settings: for Crystal form: XRPD
Experimental: The purity test, dynamic solubility test, and stability test in the assay were measured using an Agilent 1260 high-performance liquid chromatograph, and the salt formation molar ratio of ions was tested by ion chromatography, and the analytical conditions are shown in Table 19 and Table 20. Table 19 High-performance liquid chromatography test conditions

[9] = Hygroscopicity test by dynamic vapor sorption (DVS); type: physicochemical
Experimental: The dynamic vapor sorption (DVS) curve was collected on DVS IntrInsic from SMS (surface measurement systems). The relative humidity at 25°C was corrected using the deliquescence points of LiCl, Mg(NO3)2, and KCl. Table 18 DVS test parameters
The percentage change in sample mass was collected under constant temperature at 25°C as humidity varied from 0%RH to 95%RH.

[10] = intravenous injection administration (1 mg/kg)
[11] = oral gavage administration (5 mg/kg)

T1 sequence (P02550 whole entry): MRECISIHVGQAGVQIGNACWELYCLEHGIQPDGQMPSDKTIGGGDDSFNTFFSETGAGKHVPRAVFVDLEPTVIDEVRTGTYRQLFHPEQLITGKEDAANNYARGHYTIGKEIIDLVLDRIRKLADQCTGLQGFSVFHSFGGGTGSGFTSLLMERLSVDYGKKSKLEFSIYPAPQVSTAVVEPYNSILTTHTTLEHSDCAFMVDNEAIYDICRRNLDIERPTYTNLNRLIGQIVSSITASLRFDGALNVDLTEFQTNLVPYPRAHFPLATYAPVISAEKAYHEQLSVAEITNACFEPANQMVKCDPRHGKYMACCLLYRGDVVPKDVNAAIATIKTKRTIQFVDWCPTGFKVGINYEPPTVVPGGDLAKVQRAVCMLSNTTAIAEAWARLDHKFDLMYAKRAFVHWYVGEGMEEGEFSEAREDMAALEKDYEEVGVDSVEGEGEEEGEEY
T1 sequence (P02554 whole entry): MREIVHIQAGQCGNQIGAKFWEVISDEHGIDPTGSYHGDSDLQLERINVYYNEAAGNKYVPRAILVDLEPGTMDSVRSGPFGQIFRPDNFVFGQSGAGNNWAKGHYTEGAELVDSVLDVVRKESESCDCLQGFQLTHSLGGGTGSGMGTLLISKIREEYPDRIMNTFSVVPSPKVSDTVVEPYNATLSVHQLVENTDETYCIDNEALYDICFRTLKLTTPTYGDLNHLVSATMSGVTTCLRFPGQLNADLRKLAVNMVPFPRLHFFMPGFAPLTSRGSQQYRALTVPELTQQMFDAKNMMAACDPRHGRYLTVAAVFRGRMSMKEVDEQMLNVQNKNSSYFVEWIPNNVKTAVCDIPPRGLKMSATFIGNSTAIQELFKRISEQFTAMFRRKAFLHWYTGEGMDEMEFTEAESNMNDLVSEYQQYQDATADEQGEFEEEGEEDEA
Experimental for physchem: as §2, §3, §4, §5

For O=C(Cc1ccc(-c2ccc(OCCN3CCOCC3)cc2)cn1)NCc1ccccc1 [Control compound, Tirbanibulin, reference compound], the AUC(0-t) [1, 10] was 525 ng·h/mL, the clearance [1, 10] was 31.3 mL/min/kg and the AUC(0-t) [1, 11] was 1820 ng·h/mL. For the same molecule, the Cmax [1, 11] was 1010 ng/mL, the IC50 [2] was 40.3 nM and the Maximum signal value (tubulin) was 611. It also gave a solubility ([3]; FeSSIF solution, FeSSIF (pH 6.5), read-out: Solubility (µg/mL) FeSSIF (pH 6.5)) of 60.5 µg/mL (≈ 140 µM), a solubility ([3]; phosphate buffer saline (PBS), aqueous buffer, PBS (pH 7.4), read-out: Solubility (µg/mL) PBS (pH 7.4)) of 9.77 µg/mL (≈ 22.6 µM) and an IC50 [4] of 85.4 nM. It also gave a half-life at 1 µM [5] of 32.2 min.

Work on Cc1cc(OCCN2C[C@H]3COC[C@H]3C2)ccc1-c1ccc(CC(=O)NCc2ccccc2)nc1 [Crystal form A of fumarate salt] yielded a solubility at 1 h (physchem; fessif) of 3630 µg/mL, a solubility at 4 h (physchem; fessif) of 3600 µg/mL and a solubility at 24 h (physchem; fessif) of 3610 µg/mL. For the same molecule, the solubility at 1 h (physchem; sgf) was 9650 µg/mL, the solubility at 4 h (physchem; sgf) was 9820 µg/mL and the solubility at 24 h (physchem; sgf) was 9170 µg/mL. The “S: solubility” value ([6]; FaSSIF, 1 hour, 60 min) was 8.72 mg/mL, the “S: solubility” value ([6]; FaSSIF, 4 hours, 240 min) was 8.94 mg/mL and the “S: solubility” value ([6]; FaSSIF, 24 hours, 1440 min) was 8.24 mg/mL. For the same molecule, the “S: solubility” value ([6]; H2O, 1 hour, 60 min) was 9.44 mg/mL, the “S: solubility” value ([6]; H2O, 4 hours, 240 min) was 9.72 mg/mL and the “S: solubility” value ([6]; H2O, 24 hours, 1440 min) was 9.38 mg/mL. The pH ([6]; FaSSIF, 1 hour) was 4.3, the pH ([6]; FaSSIF, 4 hours) was 4.4 and the pH ([6]; FaSSIF, 24 hours) was 4.4. For the same molecule, the pH ([6]; FeSSIF, 1 hour) was 4.6, the pH ([6]; FeSSIF, 4 hours) was 4.6 and the pH ([6]; FeSSIF, 24 hours) was 4.6. The pH ([6]; H2O, 1 hour) was 4.0, the pH ([6]; H2O, 4 hours) was 4.0 and the pH ([6]; H2O, 24 hours) was 4.0. It also gave a pH ([6]; SGF, 1 hour) of 3.4, a pH ([6]; SGF, 4 hours) of 3.4 and a pH ([6]; SGF, 24 hours) of 3.4. The “XRPD change at high humidity” value ([7]; placed at 85% RH) was “shift in diffraction peaks”, the “crystal form after return to low humidity” value ([7]; returned to 30% RH) was “converted back to the crystal form A of the fumarate salt” and the “Purity (area%)” value ([8]; 25°C/60%RH/open, 1 week) was 97.02 area%. The “Relative to initial (%)” value ([8]; 25°C/60%RH/open, 1 week) was 100.0%, the Crystal form ([8]; 25°C/60%RH/open, 1 week) was “Crystal form A of fumarate salt” and the “Purity (area%)” value ([8]; 40°C/75%RH/open, 1 week) was 97.09 area%. For the same molecule, the “Relative to initial (%)” value ([8]; 40°C/75%RH/open, 1 week) was 100.1%, the Crystal form ([8]; 40°C/75%RH/open, 1 week) was “Crystal form A of fumarate salt” and the “Purity (area%)” value ([8]; Initial) was 96.99 area%. For the same molecule, the hygroscopicity ([9]; DVS, 25°C, 0%RH to 95%RH, listed as crystal form A of the fumarate salt) was “significantly hygroscopic above 70% RH” and the “weight change in DVS test” value ([9]; high-humidity conditions (>70% RH)) was “significant weight gain”.
